The results in this text go back to patent publication EP0149140A2, “Novel compounds” (BEECHAM GROUP PLC, priority 1983, dated 1985).

The assay concerns E coli B44 (09:K90:K99). The experiment in a line: Protection of Neonatal Mice from Lethal Enteropathogenic E coli Infection. Conditions: 4 day old mice, % reduction in mortality vs placebo, 10 days; for inhibition in vivo at 0.4 mg/kg: 0.4 mg/kg (dose of hydrochloride salt) b.i.d. for four days commencing 16 hours after infection; for inhibition in vivo at 0.08 mg/kg: 0.08 mg/kg (dose of hydrochloride salt) b.i.d. for four days commencing 16 hours after infection; for inhibition in vivo at 2 mg/kg: 2 mg/kg (dose of hydrochloride salt) b.i.d. for four days commencing 16 hours after infection; for Protection %: Table 2, 10 mg/kg (dose of hydrochloride salt) b.i.d. for four days commencing 16 hours after infection. In kind it is in vivo. The protocol:
4 day old mice were dosed orally with 50µl of phosphate buffered saline containing 1 x 10^5 organisms/ml of E coli B44 (09:K90:K99) an enteropathogenic strain originally isolated from a scouring calf. The mice were then dosed b.i.d. with either placebo or drug as the hydrochloride salt for four days commencing 16 hours after infection. The animals were left with their mothers throughout the experiment and a daily record of deaths were made. The experiment was terminated 10 days after infection of the mice.
The mortality in the drug group was then compared with the mortality in the placebo group using the following formula:- [formula] where Mp = mortality in group receiving placebo Md = mortality in group receiving drug
Statistical analysis was performed using 2 x 2 contingency tables (single tailed 'p'). Results are given in Tables 1 and 2. 'Protection %' is the same as '% Reduction in mortality' above.

[1] abbreviates: Mus musculus, intraduodenal, 240 h, Table 1.

In general, inhibition in vivo refers to the relative decrease from the control value, in per cent. Take `S=C(NCc1ccccc1)Nc1cc(Cl)c(N=C2NCCN2)c(Cl)c1`: the inhibition in vivo at 0.4 mg/kg under setting [1] stood at 21%. `CN=C(Nc1cc(Cl)c(N=C2NCCN2)c(Cl)c1)SC`: under setting [1], the inhibition in vivo at 0.08 mg/kg was found to be 22%, the inhibition in vivo at 0.4 mg/kg worked out at 26% and the inhibition in vivo at 2 mg/kg was 13%. On to `CSC(=Nc1cc(Cl)c(N=C2NCCN2)c(Cl)c1)N(C)C`, for which the inhibition in vivo at 0.08 mg/kg under setting [1] is 13%. As for `CSC(=NCc1ccc(F)cc1)Nc1cc(Cl)c(N=C2NCCN2)c(Cl)c1`, the inhibition in vivo at 0.04 mg/kg (Mus musculus, intraduodenal, 240 h, Table 1, 0.04 mg/kg (dose of hydrochloride salt) b.i.d. for four days commencing 16 hours after infection) is 40%. Also, under setting [1], the inhibition in vivo at 0.08 mg/kg turned out to be 29%. For the compound `CNC(=S)Nc1cc(C)c(N=C2NCCN2)c(C)c1`, under setting [1], the inhibition in vivo at 0.4 mg/kg was 43% and the inhibition in vivo at 2 mg/kg is 69%. In the case of `Cc1cc(NC(=S)NCc2ccc(F)cc2)cc(C)c1N=C1NCCN1`, the inhibition in vivo at 2 mg/kg under setting [1] stood at 11%.

`CNC(=S)Nc1cc(Cl)c(N=C2NCCN2)c(Cl)c1`: under setting [1], the inhibition in vivo at 0.08 mg/kg came out at 6% and the inhibition in vivo at 0.4 mg/kg amounted to 6%.

As for `S=C(Nc1cc(Cl)c(N=C2NCCN2)c(Cl)c1)NC1CCCCC1`, the inhibition in vivo at 0.08 mg/kg under setting [1] was found to be 6%. In the case of `CNC(=S)Nc1ccc(C)c(N=C2NCCN2)c1`, the Protection % amounted to 5%. With `CN=C(Nc1ccc(C)c(N=C2NCCN2)c1)SC`, the Protection % stood at 13%.
